Literature values as cited in patent US7198928B2, “Human COX-1 alternatively spliced variants and methods of using same” (Allergan, Inc., priority 2003, dated 2007).

How the values were obtained:
[1] = tested on: COX-1; details: human iris vs human blood
[2] = humans treated with rofecoxib, in comparison with patients receiving naproxen

For `C[C@H](C(=O)O)c1ccc(-c2ccccc2)c(F)c1` [S(+)flurbiprofen], the “potency of COX-1 inhibition in human iris relative to human blood” value [1] is listed as 70 fold.
For `CS(=O)(=O)c1ccc(C2=C(c3ccccc3)C(=O)OC2)cc1` [rofecoxib], the thrombotic cardiovascular events [2] is listed as “significant increase in thrombotic cardiovascular events”.
